Laboratory results as given in paper PMC10144301, “Antiseizure Properties of Histamine H3 Receptor Antagonists Belonging 3,4-Dihydroquinolin-2(1H)-Ones” (Molecules, 2023).
Where “and” joins values, the source holds several entries; their conditions need not be identical. Equal values may be shown once. Entries after “also recorded” stand apart in the source; their conditions may differ. Each block holds one compound with its values, some of them ahead of it.

Legend:
[1] = tested on: maximal electroshock seizure (MES) model; parameters: method as in PMID 33325568; settings: administrated combined with H3R agonist RAMH; cited from earlier work
[2] = Rotarod test for neurotoxicity; type: in vivo; settings: mice; for Death of treated animals: 300 mg/kg; for Neurotoxicity: rotarod test, i.p., three animals per group
Description: A rotarod test was carried out to estimate the neurological safety of compounds 2h, 4a, and 4b.
(§1) The neurological safety of the compounds 2h, 4a, and 4b was evaluated by the rotarod test. In the MES test, the definition of protection was the reduction or vanishing of the THLE in mice. In the PTZ test, the seizures were induced through the subcutaneous administration of PTZ (85 mg/kg). The antiseizure activities of the compounds in the PTZ test were evaluated by comparing the convulsion scores in mice between taking the compounds or not. VPA and PIT were used as positive drugs. To explore the anticonvulsive mechanism, compound 4a (10 mg/kg) was co-injected with RAMH (10 mg/kg). In addition, the THLE was recorded and compared with that of the mice treated by compound 4a alone. The detailed experimental operations in the MES, PTZ, and rotarod tests refer to our previous paper. All the animal experiments were carried out on 4-week-old KunMing male mice weighing from 20 to 25 g. The mice were housed collectively in polycarbonate cages in groups of 30, where they were maintained on a 12 h light/dark cycle in a temperature controlled (25 ± 2 °C) laboratory with free access to food and water. In the MES and PTZ models, seven animals were used in each group. In the rotarod test, three animals were used in each group. Each animal was used only once. All the experiments referring to animals were applied according to the Guide for the Care and Use of Laboratory Animals and were approved by the Medical Ethics Committee of Jinggangshan University, approval number: 220811002.

H3R = H3R (Homo sapiens, UniProt Q9Y5N1); experiment: CRE luciferase reporter assay for H3R antagonistic activity; type: cell-based
Description: Firstly, all the target compounds were screened at 5 μM and 50 μM. […] The detailed experimental operations refer to the previous paper.

[3] = tested on: maximal electroshock seizure (MES) model; experiment: Maximal electroshock seizure (MES) model; type: in vivo; settings: mice; for Protection in MES model at lowest dosage: 3 mg/kg, compared to control (saline); for Duration of tonic hind limb extension (THLE), protection in MES model: i.p., compared to control group; for Dose dependence of protection in MES model: doses of 3, 10 and 30 mg/kg
Description: as §1, with “One of the two test models is the MES seizure model, another is the PTZ-induced seizure model. […] In addition, the administration of this dosage can minimize the impact of other possible side effects such as central inhibition and cardiac toxicity. […] In addition, the tested dose of VPA was 300 mg/kg. It could be seen that all animals in the control group experienced hindlimb stiffness after the electrical stimulation in the MES model. In the treated group, the definition of protection was the reduction or vanishing of the tonic hind limb extension (THLE) in mice. […] The neurological” for “The neurological”

[4] = tested on: PTZ-induced seizure model; experiment: Pentylenetetrazole (PTZ)-induced seizure model; type: in vivo; settings: mice, 300 mg/kg, i.p.; PTZ 85 mg/kg s.c.
Description: One of the two test models is the MES seizure model, another is the PTZ-induced seizure model. […] In addition, the administration of this dosage can minimize the impact of other possible side effects such as central inhibition and cardiac toxicity. […] In addition, the tested dose of VPA was 300 mg/kg. The PTZ model was usually used to screen the antiepileptic candidates for the absence of seizures. In this work, compounds 2a-2i, 3a-3c, and 4a-4b were also evaluated for their antiseizure action in the PTZ model in mice, while using VPA as the positive drug. […] The failure of synthesized compounds in the PTZ model is expected because our previously reported H3R inhibitors were also ineffective in the PTZ model. […] A considerable increase in histamine levels was found in the brain after MES-induced seizures, whereas a tendency toward a decrease in histamine levels was observed after PTZ-kindled convulsions. […] The neurological safety of the compounds 2h, 4a, and 4b was evaluated by the rotarod test. In the MES test, the definition of protection was the reduction or vanishing of the THLE in mice. […] The antiseizure activities of the compounds in the PTZ test were evaluated by comparing the convulsion scores in mice between taking the compounds or not. […] In addition, the THLE was recorded and compared with that of the mice treated by compound 4a alone. […]

H3R, sequence (Q9Y5N1 whole entry, species assumed): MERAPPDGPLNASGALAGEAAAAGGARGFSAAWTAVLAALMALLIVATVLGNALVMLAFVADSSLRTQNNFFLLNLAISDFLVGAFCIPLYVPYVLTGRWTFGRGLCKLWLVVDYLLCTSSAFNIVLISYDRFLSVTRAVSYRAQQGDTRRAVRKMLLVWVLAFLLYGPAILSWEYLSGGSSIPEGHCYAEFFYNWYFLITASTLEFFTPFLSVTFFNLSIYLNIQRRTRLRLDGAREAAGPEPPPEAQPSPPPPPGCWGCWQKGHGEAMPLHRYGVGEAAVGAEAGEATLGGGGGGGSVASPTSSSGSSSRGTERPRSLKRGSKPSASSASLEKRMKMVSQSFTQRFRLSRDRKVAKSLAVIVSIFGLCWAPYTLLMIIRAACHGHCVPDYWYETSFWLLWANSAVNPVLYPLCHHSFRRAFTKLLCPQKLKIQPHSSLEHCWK

- IC50 (H3R): 46 µM
- melting point: 146 to 147 °C
SMILES: O=C1CCc2cc(OCCCN3CCOCC3)ccc2N1 [Compound 2g, 6-(3-(Morpholino)propoxy)-3,4-dihydroquinolin-2(1H)-one]

- IC50 (H3R): 0.47 µM
- melting point: 120 to 122 °C
SMILES: O=C1CCc2cc(OCCCN3CCCC3)ccc2N1 [Compound 2c, 6-(3-(Pyrrolidin-1-yl)propoxy)-3,4-dihydroquinolin-2(1H)-one hydrochioride]
- Duration of tonic hind limb extension (THLE), protection in MES model ([3]; 10 mg/kg): no significant difference

- IC50 (H3R): 38.1 µM
- melting point: 159 to 160 °C
SMILES: CN1CCN(CCCOc2ccc3c(c2)CCC(=O)N3)CC1 [Compound 2e, 6-(3-(4-Methylpiperazin-1-yl)propoxy)-3,4-dihydroquinolin-2(1H)-one]

- IC50 (H3R): > 50 µM
- melting point: 57 to 59 °C
SMILES: CCCN(CCC)CCCOc1ccc2c(c1)CCC(=O)N2.Cl [Compound 2b, 6-(3-(Dipropylamino)propoxy)-3,4-dihydroquinolin-2(1H)-one hydrochloride]

- IC50 (H3R): > 50 µM
- melting point: 150 to 151 °C
SMILES: O=C1CCc2cc(OCCCN3CCNCC3)ccc2N1 [Compound 2d, 6-(3-(Piperazin-1-yl)propoxy)-3,4-dihydroquinolin-2(1H)-one]

- IC50 (H3R): > 50 µM
- melting point: 150 to 151 °C
SMILES: O=C1CCc2cc(OCCCCCN3CCCCC3)ccc2N1 [Compound 3c, 6-((5-(Piperidin-1-yl)pentyl)oxy)-3,4-dihydroquinolin-2(1H)-one]

- IC50 (H3R): 0.52 µM
- melting point: 68 to 70 °C
SMILES: CCN(CC)CCCOc1ccc2c(c1)CCC(=O)N2 [Compound 2a, 6-(3-(Diethylamino)propoxy)-3,4-dihydroquinolin-2(1H)-one hydrochioride]
- Duration of tonic hind limb extension (THLE), protection in MES model ([3]; 10 mg/kg): no significant difference

Continued, compound first:

SMILES: Cc1nc(-c2ccc(OCCCN3CCCCC3)cc2)co1 [I]
- Antiseizure activity in MES test when combined with RAMH [1]: completely vanished

SMILES: O=C1CCc2cc(OCCCN3CCCCC3)ccc2N1 [Compound 2h, 6-(3-(Piperidin-1-yl)propoxy)-3,4-dihydroquinolin-2(1H)-one]
- Death of treated animals [2]: all animals
- Neurotoxicity ([2]; 10 mg/kg): 0/3
- Neurotoxicity ([2]; 30 mg/kg): 0/3
- Neurotoxicity ([2]; 100 mg/kg, 100 mg/kg): one mouse in three and 1/3
- IC50 (H3R): 0.12 µM
- Protection in MES model at lowest dosage [3]: no significant difference
- Duration of tonic hind limb extension (THLE), protection in MES model ([3]; 10 mg/kg, 10 mg/kg): decreased the duration of THLE significantly; also recorded: antiseizure activity
- Dose dependence of protection in MES model [3]: dose-dependent manner

SMILES: O=C1CCc2cc(OCCCCN3CCCCC3)ccc2N1 [Compound 3b, 6-(4-(Piperidin-1-yl)butoxy)-3,4-dihydroquinolin-2(1H)-one]
- IC50 (H3R): 2.88 µM
- melting point: 150 to 151 °C

SMILES: CCCCCN1C(=O)CCc2cc(OCCCN3CCCCC3)ccc21 [Compound 4b, 1-Pentyl-6-(3-(piperidin-1-yl)propoxy)-3,4-dihydroquinolin-2(1H)-one]
- Death of treated animals [2]: two-thirds of mice
- Neurotoxicity ([2]; 10 mg/kg): 0/3
- Neurotoxicity ([2]; 30 mg/kg): 0/3
- Neurotoxicity ([2]; 100 mg/kg, 100 mg/kg): no neurotoxicity and 0/3
- IC50 (H3R): 1.91 µM
- Protection in MES model at lowest dosage [3]: no significant difference
- Duration of tonic hind limb extension (THLE), protection in MES model ([3]; 10 mg/kg, 10 mg/kg): decreased the duration of THLE significantly; also recorded: antiseizure activity
- Dose dependence of protection in MES model [3]: dose-dependent manner

SMILES: O=C1CCc2cc(OCCN3CCCCC3)ccc2N1 [Compound 3a, 6-(2-(Piperidin-1-yl)ethoxy)-3,4-dihydroquinolin-2(1H)-one]
- IC50 (H3R): 7.49 µM
- melting point: 147 to 149 °C

SMILES: CCCN1C(=O)CCc2cc(OCCCN3CCCCC3)ccc21 [Compound 4a, 6-(3-(Piperidin-1-yl)propoxy)-1-propyl-3,4-dihydroquinolin-2(1H)-one]
- Death of treated animals [2]: two-thirds of mice
- Neurotoxicity ([2]; 10 mg/kg): 0/3
- Neurotoxicity ([2]; 30 mg/kg): 0/3
- Neurotoxicity ([2]; 100 mg/kg, 100 mg/kg): no neurotoxicity and 0/3
- IC50 (H3R): 0.37 µM
- Protection in MES model at lowest dosage [3]: no significant difference
- Duration of THLE in MES model when combined with H3R agonist RAMH ([3]; 10 mg/kg i.p., co-injected with RAMH 10 mg/kg i.p.): fully vanished; also recorded: cannot decrease the duration of THLE
- Duration of tonic hind limb extension (THLE), protection in MES model ([3]; 10 mg/kg, 10 mg/kg): decreased the duration of THLE significantly; also recorded: antiseizure activity
- Dose dependence of protection in MES model [3]: dose-dependent manner

SMILES: O=C1CCc2cc(OCCCN3CCN(c4ccccc4)CC3)ccc2N1 [Compound 2f, 6-(3-(4-Phenylpiperazin-1-yl)propoxy)-3,4-dihydroquinolin-2(1H)-one]
- IC50 (H3R): 25.6 µM
- melting point: 199 to 201 °C

SMILES: O=C1CCc2cc(OCCCN3CCC(c4ccccc4)CC3)ccc2N1 [Compound 2i, 6-(3-(4-Phenylpiperidin-1-yl)propoxy)-3,4-dihydroquinolin-2(1H)-one]
- IC50 (H3R): 38.5 µM
- melting point: 174 to 176 °C

SMILES: CCCC(CCC)C(=O)[O-].[Na+] [VPA, valproic sodium, reference compound]
- Protection against seizures induced by PTZ (seizure score) [4]: fully inhibited the seizure induced by PTZ
- Duration of tonic hind limb extension (THLE), protection in MES model ([3]; 300 mg/kg): decreased the duration of THLE significantly
